Read-outs that look alike come from different tables or passages of the source. Blank lines part the entries; values can stand above or below the compound they belong to.
Key:
FaDu xenograft = format: in vivo; conditions: for median survival: study duration 59 days
Description: FaDu cells are derived from squamous cell cancer of the head and neck that is HER2 low, non-HER2 gene amplified, HER3+, EGFR+ and highly sensitive to Cisplatin at the MTD.
Tumor cell suspensions were implanted subcutaneously into athymic nude mice. […] Cisplatin was purchased and provided for the study by Charles River Laboratories (Morrisville, N.C.). Animals were treated according to Regimen 1 at Day 1, followed by Regimen 2 on subsequent days as noted in Table A4.

HBCx-5 xenograft = experiment: Trastuzumab resistant breast cancer PDX, ADC (Example 20); format: in vivo, athymic nude mice; conditions: Day 43
Description: Dosing for each group was as follows:
A) IgG control was dosed intravenously with a loading dose of 15 mg/kg on study day 1 and maintenance doses of 10 mg/kg administered on study days 4, 8, 11, 15, 18, 22, and 25
Tumor volume was measured throughout the course of the study, and the mean tumor volume, T/C ratio, number of responders, complete response, and zero residual disease parameters were assessed at day 43.

recombinant human HER2 = recombinant human HER2 (Homo sapiens, UniProt P04626); experiment: SPR binding of captured antibody to HER2 at varying antibody capture levels
Description: An SPR assay was used to evaluate the mechanism by which an exemplary anti-HER2 biparatopic antibody binds to HER2 ECD; specifically, to understand whether both paratopes of one biparatopic antibody molecule can bind to one HER2 ECD (Cis binding; 1:1 antibody to HER2 molecules) or if each paratope of one biparatopic antibody can bind two different HER2 ECDs (Trans binding; 1:2 antibody to HER2 molecules). […] The correlation between a reduced (slower) off-rate with increasing antibody capture levels (surface density) is an indication of Trans binding (i.e. one antibody molecule binding to two HER2 molecules.
Between 2000 and 4000 RU of anti-human Fc injected at concentration between 5 and 10 μg/ml was immobilized on a CMS chip using standard amine coupling. […] HER2 dilutions were analyzed in duplicate. Sensograms were fit globally to a 1: 1 Langmuir binding model. All experiments were conducted at 25° C.
The following experiment was conducted to compare HER2 binding kinetics (kd, off-rate) of exemplary anti-HER2 ECD2×ECD4 biparatopic antibodies when captured at varying surface densities by SPR.

JIMT-1 cells = experiment: Cellular staining and location by confocal microscopy at 1, 3 and 16 h; format: cell-based, human; conditions: 200 nM antibody, 1 h, 3 h
Description: Cells were gently washed two times with warmed sterile PBS (500 ml/well). Cells were fixed with 250 ml of 10% formalin/PBS solution for 10 min at RT. The fixed cells were washed three times with PBS (500 μl/well), permeabilized with 250 μl/well of PBS containing 0.2% Triton X-100 for 5 min, and washed three times with 500 μl/well PBS. Cells were blocked with 500 μl/well of PBS+5% goat serum for 1 h at RT. […] Cells were washed three times with 500 μl/well of PBS and the coverslips containing fixed cells were then mounted on a slide using Prolong gold anti-fade with DAPI (Life Technologies; # P36931). 60× single images were acquired using Olympus FV1000 Confocal microscope.

Thermal stability by DSC = format: physicochemical
Description: DSC was performed in the MicroCal™ VP-Capillary DSC (GE Healthcare) using a purified protein sample (anti-HER2 biparatopic antibodies and anti-HER2 biparatopic-ADCs) adjusted to about 0.3 mg/ml in PBS. The sample was scanned from 20 to 100° C. at a 60° C./hr rate, with low feedback, 8 sec filter, 5 min preTstat, and 70 psi nitrogen pressure. The resulting thermogram was analyzed using Origin 7 software.
The DSC was measured before and after SEC purification.

[1] = Kaplan-Meier survival, log-rank test

Compound: N.N.[Cl][Pt][Cl] [cisplatin]
RECIST Scores CR(TV < 20 mm^3) (FaDu xenograft; Day 25, animals/group): 0/15 | RECIST Scores PD(>20% baseline growth) (FaDu xenograft; Day 25, animals/group): 15/15 | RECIST Scores PR(>30% baseline regression) (FaDu xenograft; Day 25, animals/group): 0/15 | RECIST Scores SD(neither PD or PR) (FaDu xenograft; Day 25, animals/group): 0/15 | Mean TV % Δ from base line (FaDu xenograft; Day 25, regimens of Table A4): (782%) | Treatment/Control Ratio (FaDu xenograft; Day 25, regimens of Table A4): 0.54 | Mean TV (FaDu xenograft; Day 25, regimens of Table A4 (antibodies 15 then 10 mg/kg iv; cisplatin 2 mg/kg ip)): 1070 mm^3 | Log Rank Summary (survival) vs 6336 (FaDu xenograft; [1]): n/s | Log Rank Summary (survival) vs 6908 (FaDu xenograft; [1]): ★★★ (★★★ = P < 0.001) | Log Rank Summary (survival) vs 10000 (FaDu xenograft; [1]): ★ (★ = P < 0.05) | Median Time to Progression (FaDu xenograft; regimens of Table A4): 8.4 days | median survival (FaDu xenograft): 40 days | median survival (FaDu xenograft; euthanized when tumor volume exceeded 2000 mm^3): 40 days

Compound: T-DM1
Complete response (>10% baseline regression) (HBCx-5 xenograft): 1/7 | Mean TV % change from Baseline (HBCx-5 xenograft): +65% | Mean TV (mm3) (HBCx-5 xenograft): 193 mm3 | Responders (TV < 50% of control) (HBCx-5 xenograft): 6/7 | T/C (IgG) ratio (HBCx-5 xenograft): 0.21 | Zero residual disease (TV < 20 mm3) (HBCx-5 xenograft): 0/7

kd (1/s) over a range of antibody capture levels (recombinant human HER2): no change in kd values
Compound: v4182: monovalent anti-HER2 antibody, pertuzumab Fab on chain A; the OA of Table 11D

Compound: v4184: bivalent anti-HER2 antibody, pertuzumab Fabs, heterodimeric Fc, pertuzumab analog
cellular staining and location (JIMT-1 cells): pronounced plasma membrane staining at the 1, 3 and 16 h time points

Compound: v9996: monovalent anti-HER2 antibody, pertuzumab Fab with Y96A in VL and T30A/A49G/L69F in VH
DSC post-SEC ΔTm wrt WT (C) (Thermal stability by DSC; after SEC purification, WT = v10013): −0.7 C | DSC pre-SEC ΔTm wrt WT (C) (Thermal stability by DSC; before SEC purification, WT = v10013): −0.2 C | DSC post-SEC Tm (C) (Thermal stability by DSC; one-armed antibody, after SEC purification): 77.2 C | DSC pre-SEC Tm (C) (Thermal stability by DSC; one-armed antibody, before SEC purification): 77.2 C
